Several values for one entry are separate records, joined by “and”; a condition that tells them apart may be missing. Identical values can stand only once. Inconclusive results and toxic doses are left out. Rule for the calls: active = survival T/C of 150% or more; inactive = T/C below 125% in these data. Residues, ends and D or L forms follow the SMILES beside them. *: point of attachment. Cbz = O=C(OCc1ccccc1)*
Tested on: BDF1 mice, P388 leukemia ip, median survival T/C
Experiment: NCI In Vivo Anticancer Drug Screen. Data for tumor model P388 Leukemia (intraperitoneal) in B6D2F1 (BDF1) mice
Conditions: endpoint: median survival time, higher = longer survival
Outline: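 Mice carrying the transplantable tumour receive compound or vehicle. Survival is followed in each arm, and the treated measure is divided by the vehicle measure.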

[1] = dose: 50.0 mg/kg/injection, schedule: Q01DX001 (ip), vehicle: saline sonified
[2] = dose: 100.0 mg/kg/injection, schedule: Q01DX001 (ip), vehicle: saline sonified
[3] = dose: 200.0 mg/kg/injection, schedule: Q01DX001 (ip), vehicle: saline sonified
[4] = dose: 100.0 mg/kg/injection, schedule: Q01DX009 (ip), vehicle: saline
[5] = dose: 200.0 mg/kg/injection, schedule: Q01DX009 (ip), vehicle: saline
[6] = dose: 6.25 mg/kg/injection, schedule: Q01DX009 (ip), vehicle: saline with Tween-80
[7] = dose: 12.5 mg/kg/injection, schedule: Q01DX009 (ip), vehicle: saline with Tween-80
[8] = dose: 25.0 mg/kg/injection, schedule: Q01DX009 (ip), vehicle: saline with Tween-80
[9] = dose: 50.0 mg/kg/injection, schedule: Q01DX009 (ip), vehicle: saline with Tween-80
[10] = dose: 100.0 mg/kg/injection, schedule: Q04DX003 (ip), vehicle: saline with Tween-80
[11] = dose: 200.0 mg/kg/injection, schedule: Q04DX003 (ip), vehicle: saline with Tween-80
[12] = dose: 400.0 mg/kg/injection, schedule: Q04DX003 (ip), vehicle: saline with Tween-80
[13] = dose: 100.0 mg/kg/injection, schedule: Q01DX009 (ip), vehicle: saline with Tween-80
[14] = dose: 25.0 mg/kg/injection, schedule: Q01DX009 (ip), vehicle: saline
[15] = dose: 100.0 mg/kg/injection, schedule: Q01DX001 (ip), vehicle: Klucel (hydroxypropylcellulose) (HPC)
[16] = dose: 200.0 mg/kg/injection, schedule: Q01DX001 (ip), vehicle: Klucel (hydroxypropylcellulose) (HPC)
[17] = dose: 400.0 mg/kg/injection, schedule: Q01DX001 (ip), vehicle: Klucel (hydroxypropylcellulose) (HPC)

Measured: T/C

O=S(=O)(Cl)CCCBr
inactive: [1] 100 % of control | [2] 100 % of control | [3] 100 % of control

O=C(O)C(Cc1ccccc1)NC(=O)C1CCCN1C(=O)OCc1ccccc1 (stereo not drawn) (Cbz-Pro-Phe-OH; configuration not given here)
inactive: dose: 50.0 mg/kg/injection, schedule: Q01DX005 (ip), vehicle: saline with Tween-80 97 % of control | dose: 100.0 mg/kg/injection, schedule: Q01DX005 (ip), vehicle: saline with Tween-80 101 % of control | dose: 200.0 mg/kg/injection, schedule: Q01DX005 (ip), vehicle: saline with Tween-80 95 % of control

CCOC(=O)CNCc1ccc(Cl)c(Cl)c1
inactive: dose: 50.0 mg/kg/injection, schedule: Q04DX003 (ip), vehicle: water 111 % of control | dose: 100.0 mg/kg/injection, schedule: Q04DX003 (ip), vehicle: water 113 % of control | dose: 200.0 mg/kg/injection, schedule: Q04DX003 (ip), vehicle: water 111 % of control

CCC1OC(=O)C(C)C(OC2CC(C)(O)C(O)C(C)O2)C(C)C(O)C(C)(O)CC(C)C(=O)C(C)C(O)C1C (configuration not stated)
inactive: [4] 100 % of control | [5] 94 % of control

CCOC(=O)C(CCSC(C)=O)SC(C)=O (configuration not stated)
inactive: [6] 96 % of control | [7] 122 % of control | dose: 12.5 mg/kg/injection, schedule: Q04DX003 (ip), vehicle: saline with Tween-80 111 % of control | [8] 114 % of control | dose: 25.0 mg/kg/injection, schedule: Q04DX003 (ip), vehicle: saline with Tween-80 115 % of control | [9] 104 % of control | dose: 50.0 mg/kg/injection, schedule: Q04DX003 (ip), vehicle: saline with Tween-80 109 % of control and 111 % of control

COC(=O)c1cncc(C(=O)OC)c1
inactive: [10] 100 % of control | dose: 176.0 mg/kg/injection, schedule: Q04DX003 (ip), vehicle: saline with Tween-80 100 % of control | [11] 95 % of control | dose: 264.0 mg/kg/injection, schedule: Q04DX003 (ip), vehicle: saline with Tween-80 100 % of control | [12] 100 % of control

COCC(O)CN1CCN(c2ccccc2C)CC1 (configuration not stated)
inactive: [8] 87 % of control | [9] 95 % of control | [13] 91 % of control

CCOC(=O)c1c[nH]c2ccc(OC)cc2c1=O
inactive: [14] 111 % of control | dose: 50.0 mg/kg/injection, schedule: Q01DX009 (ip), vehicle: saline 104 % of control | [4] 117 % of control | dose: 100.0 mg/kg/injection, schedule: Q04DX003 (ip), vehicle: saline 107 % of control | [5] 113 % of control | dose: 200.0 mg/kg/injection, schedule: Q04DX003 (ip), vehicle: saline 98 % of control | dose: 400.0 mg/kg/injection, schedule: Q01DX009 (ip), vehicle: saline 109 % of control | dose: 400.0 mg/kg/injection, schedule: Q04DX003 (ip), vehicle: saline 100 % of control

O=C(NP(=O)(N1CC1)N1CC1)OCc1ccccc1
inactive: dose: 100.0 mg/kg/injection, schedule: Q01DX009 (ip), vehicle: alcohol 100 % of control | dose: 100.0 mg/kg/injection, schedule: Q04DX003 (ip), vehicle: alcohol 95 % of control | dose: 200.0 mg/kg/injection, schedule: Q01DX009 (ip), vehicle: alcohol 100 % of control | dose: 200.0 mg/kg/injection, schedule: Q04DX003 (ip), vehicle: alcohol 110 % of control | dose: 400.0 mg/kg/injection, schedule: Q01DX009 (ip), vehicle: alcohol 86 % of control | dose: 400.0 mg/kg/injection, schedule: Q04DX003 (ip), vehicle: alcohol 100 % of control

CC1C(N2CCOCC2)CS1(=O)=O (configuration not stated)
inactive: dose: 100.0 mg/kg/injection, schedule: Q01DX009 (ip), vehicle: Klucel (hydroxypropylcellulose) (HPC) 100 % of control | dose: 200.0 mg/kg/injection, schedule: Q01DX009 (ip), vehicle: Klucel (hydroxypropylcellulose) (HPC) 115 % of control | dose: 400.0 mg/kg/injection, schedule: Q01DX009 (ip), vehicle: Klucel (hydroxypropylcellulose) (HPC) 105 % of control

COc1ccc(CC(Cc2ccc(OC)c(OC)c2)NC=O)cc1OC
inactive: [13] 99 % of control | [10] 101 % of control | dose: 200.0 mg/kg/injection, schedule: Q01DX009 (ip), vehicle: saline with Tween-80 91 % of control | [11] 102 % of control | dose: 400.0 mg/kg/injection, schedule: Q01DX009 (ip), vehicle: saline with Tween-80 87 % of control | [12] 116 % of control

CSc1nnc(-c2ccncc2)s1
inactive: dose: 50.0 mg/kg/injection, schedule: Q01DX001 (ip), vehicle: saline 100 % of control | dose: 100.0 mg/kg/injection, schedule: Q01DX001 (ip), vehicle: saline 100 % of control | dose: 200.0 mg/kg/injection, schedule: Q01DX001 (ip), vehicle: saline 100 % of control

CCOC(CN=Cc1ccc(Cl)c(Cl)c1)OCC
inactive: [15] 100 % of control | [16] 100 % of control | [17] 95 % of control

O/N=c1\cc(-c2ccccc2)oc2ccccc12
inactive: dose: 3.13 mg/kg/injection, schedule: Q01DX009 (ip), vehicle: saline with Tween-80 95 % of control | [6] 95 % of control | [7] 112 % of control | [8] 123 % of control

CC(=O)C(=O)N1Cc2cc3ccccc3nc2C1
inactive: [1] 100 % of control | [2] 100 % of control | [3] 100 % of control

COC(/C=C\C(OC)OC)OC
inactive: dose: 4.1 mg/kg/injection, schedule: Q01DX009 (ip), vehicle: saline 109 % of control | dose: 4.17 mg/kg/injection, schedule: Q01DX009 (ip), vehicle: saline 100 % of control | dose: 6.25 mg/kg/injection, schedule: Q01DX009 (ip), vehicle: saline 100 % of control and 122 % of control | dose: 9.3 mg/kg/injection, schedule: Q01DX009 (ip), vehicle: saline 122 % of control | dose: 9.37 mg/kg/injection, schedule: Q01DX009 (ip), vehicle: saline 95 % of control | dose: 12.5 mg/kg/injection, schedule: Q01DX009 (ip), vehicle: saline 112 % of control | dose: 18.75 mg/kg/injection, schedule: Q04DX003 (ip), vehicle: saline 110 % of control | [14] 112 % of control | dose: 37.5 mg/kg/injection, schedule: Q04DX003 (ip), vehicle: saline 105 % of control

Nc1cc(C(F)(F)F)ccc1S(=O)(=O)O
inactive: [15] 100 % of control | [16] 100 % of control | [17] 100 % of control

O=c1oc2cccc(O)c2c2c1CCCC2
inactive: dose: 100.0 mg/kg/injection, schedule: Q04DX003 (ip), vehicle: Klucel (hydroxypropylcellulose) (HPC) 100 % of control | dose: 200.0 mg/kg/injection, schedule: Q04DX003 (ip), vehicle: Klucel (hydroxypropylcellulose) (HPC) 104 % of control | dose: 400.0 mg/kg/injection, schedule: Q04DX003 (ip), vehicle: Klucel (hydroxypropylcellulose) (HPC) 100 % of control

Nc1nc(N)c2cc(NCc3ccc(Br)cc3)ccc2n1
inactive: dose: 3.12 mg/kg/injection, schedule: Q01DX009 (ip), vehicle: Klucel (hydroxypropylcellulose) (HPC) 105 % of control | dose: 6.25 mg/kg/injection, schedule: Q01DX009 (ip), vehicle: Klucel (hydroxypropylcellulose) (HPC) 100 % of control | dose: 12.5 mg/kg/injection, schedule: Q01DX009 (ip), vehicle: Klucel (hydroxypropylcellulose) (HPC) 95 % of control

CN(C)P(Cl)(Cc1ccccc1)(c1ccccc1)c1ccccc1
inactive: dose: 3.0 mg/kg/injection, schedule: Q01DX009 (ip), vehicle: saline 108 % of control | dose: 3.0 mg/kg/injection, schedule: Q04DX003 (ip), vehicle: saline 110 % of control | dose: 6.0 mg/kg/injection, schedule: Q01DX009 (ip), vehicle: saline 116 % of control and 122 % of control | dose: 6.0 mg/kg/injection, schedule: Q04DX003 (ip), vehicle: saline 105 % of control | dose: 12.0 mg/kg/injection, schedule: Q04DX003 (ip), vehicle: saline 110 % of control

CO[C@@H]1C=C[C@@]23c4cc5c(cc4CN(C[C@@H]2O)[C@H]3C1)OCO5
inactive: dose: 18.75 mg/kg/injection, schedule: Q01DX010 (ip), vehicle: saline 104 % of control | dose: 37.5 mg/kg/injection, schedule: Q01DX010 (ip), vehicle: saline 104 % of control
